Assay results taken from patent publication US20080064675A1, “Use of Aromatic flavoring agents with high melting point as solubilizing agents” (priority 2005, published 2008).

Test: trans-anethole and vanillin in compositions of modafinil (Example 3)
Type: physicochemical
Description: 200 mg of modafinil were weighted in two test tubes (A and B). 2 mL of benzyl alcohol were added to test tube A and 200 mg of vanillin, 2 mL of anethole and 2 mL of benzyl alcohol were added to test tube B. The test tubes were stirred and heated to 60° C. Further, the tubes were cooled at room temperature.

NC(=O)C[S+]([O-])C(c1ccccc1)c1ccccc1 (centres unmarked) [modafinil]
crystallization on cooling at room temperature (tube A: 200 mg in 2 mL benzyl alcohol): promptly crystallized | crystallization after cooling at room temperature (tube B: 200 mg vanillin, 2 mL anethole and 2 mL benzyl alcohol, 12 hours after cooling): no crystals were noted
